Legend:
[1] = Ex vivo fluorescence and microPET imaging of dissected organs; assay type: in vivo, nude mouse; conditions: organs harvested after microPET scan 4 h post injection
Text: The dual modality operation of the probe was confirmed. To this end, the animal was euthanized and selected organs harvested for ex vivo fluorescence and microPET imaging (FIG. 4). The fluorescence images were obtained by irradiation of the organs at λ=500 nm. This wavelength was chosen because it falls within the absorption band of [2-F]^+ (see Supporting Information). The fluorescence image was reconstructed based on the emission intensity measured at λ=580±20 nm, a wavelength which is within the fluorescence band of [2-F]^+ (see Supporting Information).
(§1) Obvious bone uptake even at 3 h post injection was not observed, which is consistent with the reported high stability of BODIPY dyes. Next, the dual modality potential of the probe was confirmed. The animal was euthanized and liver, kidneys and muscle were harvested for ex vivo PET/fluorescence imaging. […] We also sectioned the kidney and observed the BODIPY fluorescent signal under microscope.
To cross-evaluate the dual modality tracer ^18F-2-F, ex vivo fluorescence imaging was performed using a Lumina II small-animal imaging system (Xenogen, Alameda, Calif.). After the microPET imaging was done, the nude mouse was sacrificed. […] Fluorescent images were acquired and analyzed using Living Image 2.5 software (Xenogen). The fluorescence images were acquired using a 2-s exposure time (f-stop 4).

[2] = In vivo microPET imaging of normal nude mice; conditions: judged from imaging results
Procedure: The stability of the resulting ^18F—B compound is critical as free [^18F]-fluoride ions could bind to the bones giving rise to unwanted and interfering background signals.^14 The stability of compound [^18F]-[2-F]^+ was first studied in PBS buffer at pH 7.5 over a period of several hours. […] In order to validate the approach for in vivo PET imaging, [^18F]-[2-F]^+ (prepared via the aqueous route) was injected into normal nude mice that were imaged using a microPET scanner 1 h, 2 h, and 4 h post injection. […] Thus, although probe compound [^18F]-[2-F]^+ lacks any specific targeting functionalities, its accumulation in these organs constitutes a normal phenomenon, in line with its hydrophobic and cationic nature.
as §1
The nude mice were imaged using a microPET R4 rodent model scanner (Concorde Microsystems, Knoxyille, Tenn.) in the prone position. The mice were injected with 50-80 μCi of [^18F]-[2-F]^+ via the tail vein. […]

CC1=CC(C)=[N+]2C1=C(c1ccc([N+](C)(C)C)cc1)c1c(C)cc(C)n1[B-]2(F)c1ccccc1 (stereo not drawn) [[2-F]^+]
uptake in heart, representative bones and muscles, ex vivo [1]: minimal uptake
accumulation of the probe in organs, ex vivo microPET and fluorescence ([1]; excitation 500 nm, emission 580±20 nm): accumulation of the probe in the liver and kidneys
stability in vivo [2]: stable in vivo

Source: US20130189185A1, “Boron-Based Dual Imaging Probes, Compositions and Methods for Rapid Aqueous F-18 Labeling, and Imaging Methods Using Same” (UNIVERSITY OF SOUTHERN CALIFORNIA, priority 2011, published 2013)
